Assay results from patent US11713335B2, “Aminocoumarin compounds and methods of their use” (President and Fellows of Harvard College, priority 2018, dated 2023).
Converted amounts (≈) assume the structure as drawn. Like-named read-outs stand apart in the source and are kept apart here.

Legend:
[1] = tested on: WT E. coli; experiment: Minimal inhibitory concentration in wild-type E. coli; assay type: cell-based, Escherichia coli; settings: wild-type E. coli, 37° C., 16 hours, read-out: MIC (μM) in WT E. coli
Procedure: General Procedure for Determination of Minimal Inhibitory Concentrations
Overnight cultures (5 mL) of bacterial strains were grown in LB media or TSA media (for S. aureus) at 37° C. and with shaking at 220 rpm until saturation. The overnight culture was diluted serially 1:100 (50 μL in 5 mL sterile media) and then 1:100 (250 μL in 25 mL sterile media). The 25 mL of diluted culture was then dispensed to a sterile 96 well plate (Corning #3370). 198 μL of culture were dispensed into row A and 100 μL of this culture were dispensed into rows B-H. Aminocoumarin compound (DMSO stock) were added to the first row and then the row was mixed by pipetting. 100 μL of culture from row A were transferred to row B and the serial dilution continued until the final 100 μL from row H were discarded. The plate was incubated without shaking in a 37° C. for 16 hours and then read by visible light spectrophotometer (Molecular Devices) at 600 nm. The minimal inhibitory concentration (MIC) was determined as the lowest concentration of compound concentration that inhibited the growth of bacteria.

[2] = tested on: S. aureus RN4220; experiment: Minimal inhibitory concentration, S. aureus RN4220; assay type: cell-based; settings: 16 hour minimal inhibitory concentration at 37° C., read-out: MIC (μM) S. aureus RN4220
Summary of the method: (§1)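 Overnight cultures in LB (TSA for S. aureus) at 37 °C, diluted 1:100 twice, then exposed to twofold serial dilutions of compound from DMSO stock. Plates incubated unshaken 16 h at 37 °C and read at OD600. MIC (µM) is the lowest concentration inhibiting growth.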

[3] = tested on: S. aureus MW2; experiment: Minimal inhibitory concentration, S. aureus MW2; assay type: cell-based; settings: 16 hour minimal inhibitory concentration at 37° C., read-out: MIC (μM) S. aureus MW2 (MRSA)
Summary of the method: as §1

[4] = tested on: E. cloacae 13047; experiment: Minimal inhibitory concentration, E. cloacae 13047; assay type: cell-based; settings: 16 hour minimal inhibitory concentration at 37° C., read-out: MIC (μM) E. cloacae 13047
Summary of the method: as §1

[5] = tested on: A. baumannii 19606; experiment: Minimal inhibitory concentration, A. baumannii 19606; assay type: cell-based; settings: 16 hour minimal inhibitory concentration at 37° C., read-out: MIC (μM) A. baumannii 19606
Summary of the method: as §1

[6] = tested on: K. pneumoniae 700721; experiment: Minimal inhibitory concentration, K. pneumoniae 700721; assay type: cell-based; settings: 16 hour minimal inhibitory concentration at 37° C., read-out: MIC (μM) K. pneumoniae 700721
Summary of the method: as §1

[7] = tested on: E. coli MC4100; experiment: Minimal inhibitory concentration, E. coli MC4100; assay type: cell-based; settings: 16 hour minimal inhibitory concentration at 37° C., read-out: MIC (μM) E. coli MC4100 ara+
Summary of the method: as §1

[8] = tested on: E. coli 25922; experiment: Minimal inhibitory concentration, E. coli 25922; assay type: cell-based; settings: 16 hour minimal inhibitory concentration at 37° C., read-out: MIC (μM) E. coli 25922
Summary of the method: as §1

[9] = Staphylococcus aureus, RN4220, 16 h
[10] = Staphylococcus aureus, MRSA, 16 h
[11] = Acinetobacter baumannii, 19606, 16 h

Row | Structure (SMILES) | MIC ([1]; Escherichia coli) [µM] | MIC [2, 9] [µM] | MIC [3, 10] [µM] | MIC ([4]; Enterobacter cloacae, 13047) [µM] | MIC [5, 11] [µM] | MIC ([6]; Klebsiella pneumoniae, 700721) [µM] | MIC ([7]; Escherichia coli, MC4100, 16 h) [µM] | MIC ([8]; Escherichia coli, 25922, 16 h) [µM] | MIC [1] [µM] | MIC [2] [µM] | MIC [3] [µM] | MIC [4] [µM] | MIC [5] [µM] | MIC [6] [µM] | MIC [7] [µM] | MIC [8] [µM]
1 | CO[C@@H]1[C@@H](OC(N)=O)[C@@H](O)[C@H](Oc2ccc3c(O)c(NC(=O)c4ccc(-c5ccccc5)cc4)c(=O)oc3c2C)OC1(C)C [Compound 2] | > 300 | 21 (≈ 12.7 µg/mL) | 21 (≈ 12.7 µg/mL) | > 100 | > 50 | > 100 | > 200 | > 200 |  |  |  |  |  |  |  | 
2 | CO[C@@H]1[C@@H](OC(N)=O)[C@@H](O)[C@H](Oc2ccc3c(O)c(NC(=O)Nc4cccc(-c5ccccc5)c4)c(=O)oc3c2C)OC1(C)C [Compound 3] | > 300 | 81 (≈ 50.2 µg/mL) | 81 (≈ 50.2 µg/mL) | > 100 | > 50 | > 100 | > 200 | > 200 |  |  |  |  |  |  |  | 
3 | CO[C@@H]1[C@@H](OC(N)=O)[C@@H](O)[C@H](Oc2ccc3c(O)c(NC(=O)c4ccc5ccccc5c4)c(=O)oc3c2C)OC1(C)C [Compound 4] | > 300 | 22 (≈ 12.7 µg/mL) | 22 (≈ 12.7 µg/mL) | > 100 | > 50 | > 100 | > 200 | > 200 |  |  |  |  |  |  |  | 
4 | CO[C@@H]1[C@@H](OC(N)=O)[C@@H](O)[C@H](Oc2ccc3c(O)c(NC(=O)C(c4ccccc4)c4ccccc4)c(=O)oc3c2C)OC1(C)C [Compound 5] | > 300 | > 100 | 80 (≈ 49.5 µg/mL) | > 100 | > 50 | > 100 | > 200 | > 200 |  |  |  |  |  |  |  | 
5 | CO[C@@H]1[C@@H](OC(N)=O)[C@@H](O)[C@H](Oc2ccc3c(O)c(NC(=O)c4cc5ccccc5o4)c(=O)oc3c2C)OC1(C)C [Compound 6] | > 300 | 88 (≈ 50 µg/mL) | 88 (≈ 50 µg/mL) | > 100 | > 50 | > 100 | > 200 | > 200 |  |  |  |  |  |  |  | 
6 | COc1ccc(C(=O)Nc2c(O)c3ccc(O[C@@H]4OC(C)(C)[C@H](OC)[C@@H](OC(N)=O)[C@H]4O)c(C)c3oc2=O)cc1 [Compound 7] | > 300 | 45 (≈ 25.1 µg/mL) | 45 (≈ 25.1 µg/mL) | > 100 | > 50 | > 100 | > 200 | > 200 |  |  |  |  |  |  |  | 
7 | CO[C@@H]1[C@@H](OC(N)=O)[C@@H](O)[C@H](Oc2ccc3c(O)c(NC(=O)c4ccccc4)c(=O)oc3c2C)OC1(C)C [Compound 8] |  |  |  |  |  |  |  |  | >300 | >100 | >100 | >100 | >50 | >100 | >200 | >200
8 | COc1ccc(C(=O)Nc2c(O)c3ccc(O[C@@H]4OC(C)(C)[C@H](OC)[C@@H](OC(N)=O)[C@H]4O)c(C)c3oc2=O)cc1OC [Compound 9] | > 300 | 85 (≈ 50 µg/mL) | 43 (≈ 25.3 µg/mL) | > 100 | > 50 | > 100 | > 200 | > 200 |  |  |  |  |  |  |  | 
9 | COc1cccc(OC)c1C(=O)Nc1c(O)c2ccc(O[C@@H]3OC(C)(C)[C@H](OC)[C@@H](OC(N)=O)[C@H]3O)c(C)c2oc1=O [Compound 10] | > 300 | > 100 | 85 (≈ 50 µg/mL) | > 100 | > 50 | > 100 | > 200 | > 200 |  |  |  |  |  |  |  | 
10 | COc1cc(C(=O)Nc2c(O)c3ccc(O[C@@H]4OC(C)(C)[C@H](OC)[C@@H](OC(N)=O)[C@H]4O)c(C)c3oc2=O)cc(OC)c1OC [Compound 11] | > 300 | > 100 | > 100 | > 100 | > 50 | > 100 | > 200 | > 200 |  |  |  |  |  |  |  | 
11 | CO[C@@H]1[C@@H](OC(N)=O)[C@@H](O)[C@H](Oc2ccc3c(O)c(NC(=O)C4CC4)c(=O)oc3c2C)OC1(C)C [Compound 13] | > 300 | > 100 | > 100 | > 100 | > 50 | > 100 | > 200 | > 200 |  |  |  |  |  |  |  | 
12 | CO[C@@H]1[C@@H](OC(N)=O)[C@@H](O)[C@H](Oc2ccc3c(O)c(NC(=O)C45CC6CC(CC(C6)C4)C5)c(=O)oc3c2C)OC1(C)C [Compound 14] | > 300 | 43 (≈ 25.2 µg/mL) | 21 (≈ 12.3 µg/mL) | > 100 | > 50 | > 100 | > 200 | > 200 |  |  |  |  |  |  |  | 
13 | CO[C@@H]1[C@@H](OC(N)=O)[C@@H](O)[C@H](Oc2ccc3c(O)c(NC(=O)c4ccc[nH]4)c(=O)oc3c2C)OC1(C)C [Compound 15] | > 300 | > 100 | > 100 | > 100 | > 50 | > 100 | > 200 | > 200 |  |  |  |  |  |  |  | 
14 | CO[C@@H]1[C@@H](OC(N)=O)[C@@H](O)[C@H](Oc2ccc3c(O)c(NC(=O)c4cc5ccccc5[nH]4)c(=O)oc3c2C)OC1(C)C [Compound 16] |  |  |  |  |  |  |  |  | >300 | >100 | >100 | >100 | >50 | >100 | >200 | >200
15 | CO[C@@H]1[C@@H](OC(N)=O)[C@@H](O)[C@H](Oc2ccc3c(O)c(NC(=O)c4c[nH]c5ccccc45)c(=O)oc3c2C)OC1(C)C [Compound 17] | > 300 | 44 (≈ 25 µg/mL) | 22 (≈ 12.5 µg/mL) | > 100 | > 50 | > 100 | > 200 | > 200 |  |  |  |  |  |  |  | 
16 | CO[C@@H]1[C@@H](OC(N)=O)[C@@H](O)[C@H](Oc2ccc3c(O)c(NC(=O)c4cccc(-c5ccc(C)cc5)c4)c(=O)oc3c2C)OC1(C)C [Compound 20] |  |  |  |  |  |  |  |  | 26 (≈ 16.1 µg/mL) | 2.5 (≈ 1.55 µg/mL) | 3 (≈ 1.86 µg/mL) | >100 | 40 (≈ 24.7 µg/mL) | >100 | 26 (≈ 16.1 µg/mL) | 40 (≈ 24.7 µg/mL)
17 | CO[C@@H]1[C@@H](OC(N)=O)[C@@H](O)[C@H](Oc2ccc3c(O)c(NC(=O)c4cccc(-c5c(C)cccc5C)c4)c(=O)oc3c2C)OC1(C)C [Compound 21] | 133 (≈ 84.1 µg/mL) | 10 (≈ 6.33 µg/mL) | 10 (≈ 6.33 µg/mL) | > 100 | > 50 | > 100 | 133 (≈ 84.1 µg/mL) | > 200 |  |  |  |  |  |  |  | 
18 | CO[C@@H]1[C@@H](OC(N)=O)[C@@H](O)[C@H](Oc2ccc3c(O)c(NC(=O)c4cccc(-c5cccs5)c4)c(=O)oc3c2C)OC1(C)C [Compound 22] | 89 (≈ 54.3 µg/mL) | 10 (≈ 6.11 µg/mL) | 10 (≈ 6.11 µg/mL) | > 100 | > 50 | > 100 | 89 (≈ 54.3 µg/mL) | 164 (≈ 100 µg/mL) |  |  |  |  |  |  |  | 
19 | CO[C@@H]1[C@@H](OC(N)=O)[C@@H](O)[C@H](Oc2ccc3c(O)c(NC(=O)c4cccc(N5CCOCC5)c4)c(=O)oc3c2C)OC1(C)C [Compound 23] | > 300 | 82 (≈ 50.3 µg/mL) | 82 (≈ 50.3 µg/mL) | > 100 | > 50 | > 100 | > 200 | > 200 |  |  |  |  |  |  |  | 
20 | CO[C@@H]1[C@@H](OC(N)=O)[C@@H](O)[C@H](Oc2ccc3c(O)c(NC(=O)c4cccc(-c5ccc([N+](=O)[O-])cc5)c4)c(=O)oc3c2C)OC1(C)C [Compound 24] |  |  |  |  |  |  |  |  | >300 | 5 (≈ 3.25 µg/mL) | 5 (≈ 3.25 µg/mL) | >100 | >50 | >100 | >200 | 154 (≈ 100 µg/mL)
